Laboratory results published in PubChem BioAssay (NCI).
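96-well plates; 48 h exposure; 5 concentrations. Endpoints by linear interpolation between flanking doses. Not reached: highest tested concentration assigned. The concentration for 50% growth inhibition is given as GI50. At the TGI there is no net growth.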

Experiments:
Test in all cases: NCI anticancer screen, dose series, 48 h
NCI-H460 lung = test system: NCI-H460 lung
PC-3 prostate = test system: PC-3 prostate
UO-31 renal = test system: UO-31 renal
SK-MEL-28 melanoma = test system: SK-MEL-28 melanoma
CAKI-1 renal = test system: CAKI-1 renal
HT29 colon = test system: HT29 colon
SF-539 CNS = test system: SF-539 CNS
TK-10 renal = test system: TK-10 renal
K-562 leukemia = test system: K-562 leukemia
DU-145 prostate = test system: DU-145 prostate
COLO 205 colon = test system: COLO 205 colon
UACC-257 melanoma = test system: UACC-257 melanoma
MOLT-4 leukemia = test system: MOLT-4 leukemia
OVCAR-8 ovarian = test system: OVCAR-8 ovarian
NCI-H226 lung = test system: NCI-H226 lung
OVCAR-3 ovarian = test system: OVCAR-3 ovarian
HCC-2998 colon = test system: HCC-2998 colon
SK-OV-3 ovarian = test system: SK-OV-3 ovarian
RXF 393 renal = test system: RXF 393 renal
KM12 colon = test system: KM12 colon
SNB-19 CNS = test system: SNB-19 CNS
NCI-H23 lung = test system: NCI-H23 lung
UACC-62 melanoma = test system: UACC-62 melanoma
A549 NSCLC = test system: A549 NSCLC
786-0 renal = test system: 786-0 renal
SW-620 colon = test system: SW-620 colon
U251 CNS = test system: U251 CNS
HCT-15 colon = test system: HCT-15 colon
ACHN renal = test system: ACHN renal
IGROV1 ovarian = test system: IGROV1 ovarian
MALME-3M melanoma = test system: MALME-3M melanoma
SF-268 CNS = test system: SF-268 CNS
RPMI-8226 leukemia = test system: RPMI-8226 leukemia
OVCAR-5 ovarian = test system: OVCAR-5 ovarian
HOP-62 NSCLC = test system: HOP-62 NSCLC
NCI/ADR-RES ovarian = test system: NCI/ADR-RES ovarian
LOX IMVI melanoma = test system: LOX IMVI melanoma
HS 578T breast = test system: HS 578T breast
T-47D breast = test system: T-47D breast
A498 renal = test system: A498 renal
MDA-MB-435 = test system: MDA-MB-435
EKVX NSCLC = test system: EKVX NSCLC
SN12C renal = test system: SN12C renal
M14 melanoma = test system: M14 melanoma
MCF7 breast = test system: MCF7 breast
HL-60(TB) leukemia = test system: HL-60(TB) leukemia
HCT-116 colon = test system: HCT-116 colon
CCRF-CEM leukemia = test system: CCRF-CEM leukemia
SR leukemia = test system: SR leukemia
SK-MEL-5 melanoma = test system: SK-MEL-5 melanoma
BT-549 breast = test system: BT-549 breast
HOP-92 NSCLC = test system: HOP-92 NSCLC
SF-295 CNS = test system: SF-295 CNS
NCI-H522 lung = test system: NCI-H522 lung
OVCAR-4 ovarian = test system: OVCAR-4 ovarian
MDA-MB-231 breast = test system: MDA-MB-231 breast

## O=C(/C=C\Sc1ccccn1)c1cccc(Br)c1
NCI-H460 lung
  GI50: 9.41 µM
  TGI: 29.6 µM
PC-3 prostate
  GI50: 7.68 µM
  TGI: 22.5 µM
UO-31 renal
  GI50: 5.15 µM
  TGI: 23.1 µM
SK-MEL-28 melanoma
  GI50: 8.65 µM
  TGI: > 100 µM
CAKI-1 renal
  GI50: 3.99 µM
  TGI: 17.2 µM
HT29 colon
  GI50: 3.46 µM
  TGI: > 100 µM
SF-539 CNS
  GI50: 8.15 µM
  TGI: 25 µM
TK-10 renal
  GI50: 3.25 µM
  TGI: 12.2 µM
K-562 leukemia
  GI50: 2.23 µM
  TGI: 6.63 µM
DU-145 prostate
  GI50: 16.3 µM
  TGI: 30.7 µM
COLO 205 colon
  GI50: 5.27 µM
  TGI: > 100 µM
UACC-257 melanoma
  GI50: 21.2 µM
  TGI: 43.4 µM
MOLT-4 leukemia
  GI50: 1.6 µM
  TGI: 4.23 µM
OVCAR-8 ovarian
  GI50: 3.53 µM
  TGI: > 100 µM
NCI-H226 lung
  GI50: 2.32 µM
  TGI: 5.46 µM
OVCAR-3 ovarian
  GI50: 5.54 µM
  TGI: 24.2 µM
HCC-2998 colon
  GI50: 3.9 µM
  TGI: 15 µM
SK-OV-3 ovarian
  GI50: > 100 µM
  TGI: > 100 µM
RXF 393 renal
  GI50: 2.64 µM
  TGI: 8.62 µM
KM12 colon
  GI50: 13.4 µM
  TGI: 28.8 µM
SNB-19 CNS
  GI50: 39.1 µM
  TGI: > 100 µM
NCI-H23 lung
  GI50: 10.8 µM
  TGI: 25.1 µM
UACC-62 melanoma
  GI50: 11.7 µM
  TGI: 24.5 µM
A549 NSCLC
  GI50: 23 µM
  TGI: 80.3 µM
786-0 renal
  GI50: 2.67 µM
  TGI: 6.48 µM
SW-620 colon
  GI50: 2.82 µM
  TGI: 8.41 µM
U251 CNS
  GI50: 10.2 µM
  TGI: 21.8 µM
HCT-15 colon
  GI50: 1.4 µM
  TGI: 3.23 µM
ACHN renal
  GI50: 1.65 µM
  TGI: 3 µM
IGROV1 ovarian
  GI50: 16.5 µM
  TGI: 50.4 µM
MALME-3M melanoma
  GI50: 2.83 µM
  TGI: 8.97 µM
SF-268 CNS
  GI50: 6.53 µM
  TGI: 26.4 µM
RPMI-8226 leukemia
  GI50: 0.0787 µM
  TGI: > 100 µM
OVCAR-5 ovarian
  GI50: 15 µM
  TGI: 29.5 µM
HOP-62 NSCLC
  GI50: 17.4 µM
  TGI: 33.7 µM
NCI/ADR-RES ovarian
  GI50: 8.8 µM
  TGI: > 100 µM
LOX IMVI melanoma
  GI50: 1.69 µM
  TGI: 3.12 µM
HS 578T breast
  GI50: 19.5 µM
  TGI: 83.3 µM
T-47D breast
  GI50: 7.54 µM
  TGI: > 100 µM
A498 renal
  GI50: 19.5 µM
  TGI: 36.5 µM
MDA-MB-435
  GI50: 9.12 µM
  TGI: 77.9 µM
EKVX NSCLC
  GI50: 19.3 µM
  TGI: 35.7 µM
SN12C renal
  GI50: 10.2 µM
  TGI: 24.3 µM
M14 melanoma
  GI50: 15 µM
  TGI: 43.4 µM
MCF7 breast
  GI50: 1.77 µM
  TGI: 6.18 µM
HL-60(TB) leukemia
  GI50: 2.25 µM
  TGI: 6.32 µM
HCT-116 colon
  GI50: 1.95 µM
  TGI: 3.85 µM
CCRF-CEM leukemia
  GI50: 3 µM
  TGI: > 100 µM
SR leukemia
  GI50: 1.68 µM
  TGI: 3.79 µM
SK-MEL-5 melanoma
  GI50: 14.1 µM
  TGI: 28 µM
BT-549 breast
  GI50: 7.29 µM
  TGI: 32 µM
HOP-92 NSCLC
  GI50: 2.64 µM
  TGI: 7.85 µM
SF-295 CNS
  GI50: 16 µM
  TGI: 39.6 µM
NCI-H522 lung
  GI50: 2.28 µM
  TGI: 5.84 µM
OVCAR-4 ovarian
  GI50: 5.71 µM
  TGI: > 100 µM
MDA-MB-231 breast
  GI50: 2.35 µM
  TGI: 5.96 µM
